# Assays:
# [1] = Biodistribution of [11C]14e in mice; type: in vivo
# Procedure: (§1) Radiosynthesis of [^11C] […] Tissue samples were taken and converted to % ID/g for each organ. Ex vivo autoradiography studies were also conducted in mice at 30 min post-injection of the radiotracer. A microPET imaging study was also performed on a male cynomolgus monkey.
# σ1 receptors = molecular target: T1, σ1 receptors (Mus musculus, UniProt O55242); experiment: Ex vivo autoradiography of [11C]14e in mice; details: 30 min post-injection
# T1 construct: Ex vivo autoradiography studies were also conducted in mice; from tissue; host or cells: mouse brain (living animal, ex vivo autoradiography)
# T1 sequence (O55242 whole entry): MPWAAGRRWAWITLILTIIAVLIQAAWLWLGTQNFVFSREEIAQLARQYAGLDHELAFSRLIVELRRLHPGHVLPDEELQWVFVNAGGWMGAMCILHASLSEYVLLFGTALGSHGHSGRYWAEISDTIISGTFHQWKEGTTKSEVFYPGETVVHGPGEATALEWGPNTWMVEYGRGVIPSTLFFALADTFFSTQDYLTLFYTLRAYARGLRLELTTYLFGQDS
# Procedure: as §1
smiles,measurement,setting,value
"[11CH3]Oc1ccc(C(=O)C2CCN([C@@H]3CCN(Cc4ccc(F)cc4)C[C@H]3O)CC2)cc1 [[^11C]14e, ((3′R,4′R)-1′-(4-fluorobenzyl)-3′-hydroxy-1,4′-bipiperidin-4-yl)(4-[^11C]methoxyphenyl)methanone]","regional brain uptake, cerebellum",[1]; 5 min post-injection,6.34±0.05 % ID/g
same,"regional brain uptake, cortex",[1]; 5 min post-injection,6.69±0.72 % ID/g
same,"regional brain uptake, hippocampus",[1]; 5 min post-injection,5.41±0.30 % ID/g
same,"regional brain uptake, striatum",[1]; 5 min post-injection,6.63±0.56 % ID/g
same,clearance from brain,"[1]; high between 5 and 30 min, washed out between 30 and 60 min",suitable clearance from brain
same,distribution in brain by autoradiography,σ1 receptors,consistent with the distribution of σ1 receptors in brain
